Results taken from EP4567031A1, “HPK1 INHIBITOR, PREPARATION METHOD THEREFOR, AND USE THEREOF” (Beijing Earthwise Technology Co., Ltd., priority 2022, dated 2024).

Key:
human Pan T cells = assay: Human Pan T cell IL-2 ELISA; assay type: cell-based; conditions: Homo sapiens, T-cell, 48 h, Anti-CD3 and Anti-CD28, supernatant IL-2 ELISA, read-out: IL-2 release, EC50
Outline: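 Human Pan T cells (1×10^6 cells/ml) stimulated with plate-bound anti-CD3 plus anti-CD28 and treated 48 h with compound at 9 final concentrations, 39.063–10000 nM. Supernatant IL-2 by ELISA, expressed as fold over DMSO wells; EC50 from four-parameter logistic fit.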

HPK1 = HPK1 (Homo sapiens, UniProt Q92918); assay: HPK1 HTRF kinase assay; assay type: biochemical; conditions: 1000 µM ATP; 50 nM HPK1; STK1 substrate; read-out: HPK1, IC50
Sequence of HPK1 (Q92918 whole entry, species assumed): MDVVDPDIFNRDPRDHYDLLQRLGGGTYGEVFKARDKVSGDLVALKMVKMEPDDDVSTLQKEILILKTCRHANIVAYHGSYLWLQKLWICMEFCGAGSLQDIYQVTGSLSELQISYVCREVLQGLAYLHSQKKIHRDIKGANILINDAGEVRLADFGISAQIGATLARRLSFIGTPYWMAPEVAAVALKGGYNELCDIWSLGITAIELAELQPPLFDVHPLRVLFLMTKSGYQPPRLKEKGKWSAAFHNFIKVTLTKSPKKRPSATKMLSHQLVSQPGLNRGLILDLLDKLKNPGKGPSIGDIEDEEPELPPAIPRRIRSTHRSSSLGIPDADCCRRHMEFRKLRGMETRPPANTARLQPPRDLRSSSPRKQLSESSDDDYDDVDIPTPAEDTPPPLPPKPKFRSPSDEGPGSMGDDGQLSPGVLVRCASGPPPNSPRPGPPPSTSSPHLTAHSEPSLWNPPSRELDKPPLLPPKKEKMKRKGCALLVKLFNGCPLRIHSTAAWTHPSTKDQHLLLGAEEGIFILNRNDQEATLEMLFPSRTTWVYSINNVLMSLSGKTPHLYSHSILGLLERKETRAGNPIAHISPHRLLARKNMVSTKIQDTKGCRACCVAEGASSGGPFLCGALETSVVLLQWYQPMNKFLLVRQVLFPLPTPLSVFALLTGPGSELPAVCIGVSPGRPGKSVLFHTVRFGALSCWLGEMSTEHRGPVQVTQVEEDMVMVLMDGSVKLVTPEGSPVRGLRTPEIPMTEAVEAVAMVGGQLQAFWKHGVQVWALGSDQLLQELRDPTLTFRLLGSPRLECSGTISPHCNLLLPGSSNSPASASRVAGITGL
Description: The reaction was initiated by adding 50 nM HPK1. After 120 minutes of reaction, the assay was terminated by adding 10 µL of Detection Mix.
The ratio of the signal at 665 nm to the signal at 615 nm was converted to the percentage of inhibition. Inhibition % = (maximum value - sample value) / (maximum value - minimum value)×100. The minimum value refers to the value measured in a well without enzyme but with DMSO and substrate, and the maximum value refers to the value measured in a well with DMSO, enzyme and substrate. IC50 values were calculated by XLFit (version 5.3.1.3) in Excel. Equation: Y = Bottom + (Top - Bottom) / (1 + (IC50/X) ^ HillSlope).

Row | Structure (SMILES) | EC50 (human Pan T cells) [nM] | IC50 (HPK1) [nM]
1 | COC1CCCn2c(-c3cc4c(c5c3CNC5=O)Nc3ccc(N5CCOCC5)cc3C4(C)C)cnc21 (single isomer, unassigned) [Example 90] | 6.3 | 6.72
2 | CC1(C)c2cc(N3CCOCC3)ncc2Nc2c1cc(-c1cnn3cccnc13)c1c2C(=O)NC1 [Example 26] | 14.9 | 14.5
3 | CC1(C)c2cc(N3CCOCC3)cnc2Nc2c1cc(-c1cnn3cccnc13)c1c2C(=O)NC1 [Example 28] | 95.9 | 21.5
4 | CC1(C)c2cc(-c3cnn4cccnc34)c3c(c2Nc2ccc(N4CCOCC4)nc21)C(=O)NC3 [Example 29] | 27.9 | 10.1
5 | CC1(C)c2cc(N3CCOCC3)ccc2Nc2c1cc(-c1cnn3ccncc13)c1c2C(=O)NC1 [Example 35] | 14.5 | 12.8
6 | CC1(C)c2cc(N3CCOCC3)ccc2Nc2c1cc(-c1nnc3c(C#N)cccn13)c1c2C(=O)NC1 [Example 39] | 16.8 | 39
7 | CN1CCN(Cc2ccc3c(c2)C(C)(C)c2cc(-c4cnn5cccnc45)c4c(c2N3)C(=O)NC4)CC1 [Example 50] | 19 | 8.71
8 | CC1(C)c2cc(CN3CCOCC3)ccc2Nc2c1cc(-c1cnn3cccnc13)c1c2C(=O)NC1 [Example 51] | 58.8 | 11.4
9 | CN1CCN(c2ccc3c(c2)C(C)(C)c2cc(-c4cnn5cccnc45)c4c(c2N3)C(=O)NC4)C(=O)C1 [Example 55] | 40.3 | 7.55
10 | CC1(C)c2cc(NC(=O)CC3CC3)ccc2Nc2c1cc(-c1cnn3cccnc13)c1c2C(=O)NC1 [Example 56] | 28 | 11.5
11 | CC1(C)c2cc(CN3CCNCC3)ccc2Nc2c1cc(-c1cnn3cccnc13)c1c2C(=O)NC1 [Example 57] | 27.1 | 11
12 | Cc1ccnc2c(-c3cc4c(c5c3CNC5=O)Nc3ccc(N5CCOCC5)cc3C4(C)C)cnn12 [Example 60] | 17.9 | 14.4
13 | Cc1cnc2c(-c3cc4c(c5c3CNC5=O)Nc3ccc(N5CCOCC5)cc3C4(C)C)cnn2c1 [Example 61] | 17.7 | 8.55
14 | CC1CCn2c(-c3cc4c(c5c3CNC5=O)Nc3ccc(N5CCOCC5)cc3C4(C)C)cnc2C1 (stereo not drawn) [Example 65] | 28 | 8.59
15 | Cn1c(-c2cc3c(c4c2CNC4=O)Nc2ccc(N4CCOCC4)cc2C3(C)C)cnc1C1CC1 [Example 68] | 21.1 | 12
16 | COC1CCCn2c(-c3cc4c(c5c3CNC5=O)Nc3ccc(N5CCOCC5)cc3C4(C)C)cnc21 (stereo not drawn) [Example 69] | 11.4 | 6.86
17 | CC1(C)c2cc(N3CCOCC3)ccc2Nc2c1cc(-c1cnn3c1CNCC3)c1c2C(=O)NC1 [Example 70] | 23.4 | 12.7
18 | CC1(C)c2cc(N3CCOCC3)ccc2Nc2c1cc(-c1nnc3n1CCCC3)c1c2C(=O)NC1 [Example 71] | 68.6 | 11
19 | CC1(C)c2cc(CN3CCN(CC4CC4)CC3)ccc2Nc2c1cc(-c1cnn3cccnc13)c1c2C(=O)NC1 [Example 72] | 18.1 | 2.13
20 | CC1(C)c2cc(N3CCOCC3)c(C(F)F)cc2Nc2c1cc(-c1cnn3cccnc13)c1c2C(=O)NC1 [Example 73] | 28.9 | 7.87
21 | CC1(C)c2cc(N3CCOCC3)ccc2Nc2c1cc(-c1cncc(OCC3COC3)c1)c1c2C(=O)NC1 [Example 74] | 100 | 49.7
22 | COc1cncc2c(-c3cc4c(c5c3CNC5=O)Nc3ccc(N5CCOCC5)cc3C4(C)C)cnn12 [Example 76] | 50.4 | 8.73
23 | CN1CCn2c(-c3cc4c(c5c3CNC5=O)Nc3ccc(N5CCOCC5)cc3C4(C)C)cnc2C1 [Example 78] | 75.5 | 35
24 | CC1(C)c2cc(N3CCOCC3)ccc2Nc2c1cc(-c1cnc3n1CCOC3)c1c2C(=O)NC1 [Example 79] | 19.5 | 6.36
25 | CC1(C)c2cc(N3CCOCC3)ccc2Nc2c1cc(-n1cnc3c1CCCC3)c1c2C(=O)NC1 [Example 80] | 86.6 | 9.18
26 | Cc1cc(-c2cc3c(c4c2CNC4=O)Nc2ccc(N4CCOCC4)cc2C3(C)C)cc(=O)[nH]1 [Example 81] | 35.8 | 6.31
27 | CNc1cncc(-c2cc3c(c4c2CNC4=O)Nc2ccc(N4CCOCC4)cc2C3(C)C)c1 [Example 82] | 27 | 6.62
28 | CC1(C)c2cc(C3CCNCC3)ccc2Nc2c1cc(-c1cnn3cccnc13)c1c2C(=O)NC1 [Example 83] | 17.4 | 5.8
29 | CN1CCn2c(-c3cc4c(c5c3CNC5=O)Nc3ccc(N5CCOCC5)cc3C4(C)C)cnc2C1=O [Example 84] | 65.9 | 8.63
30 | CC1(C)c2cc(NC(=O)COCCO)ccc2Nc2c1cc(-c1cnn3cccnc13)c1c2C(=O)NC1 [Example 92] | 68.2 | 7.64

The next lines start with the values.

Row | EC50 (human Pan T cells) [nM] | IC50 (HPK1) [nM] | Structure (SMILES)
31 | 2.11 | 6.31 | CC1(C)c2cc(N3CCOC(C(C)(C)O)C3)ccc2Nc2c1cc(-c1cnc3cccnn13)c1c2C(=O)NC1 (stereo not drawn) [Example 19]
32 | 2.2 | 11.2 | CC1(C)c2cc(N3CCOC(C(C)(C)O)C3)ccc2Nc2c1cc(-c1cnn3cccnc13)c1c2C(=O)NC1 (stereo not drawn) [Example 22]
33 | < 1.5 | 3.65 | CC1(C)c2cc(N3CCOC(C(C)(C)O)C3)ccc2Nc2c1cc(-c1cnc3c(C#N)cccn13)c1c2C(=O)NC1 (stereo not drawn) [Example 23]
34 | 1.83 | 11.8 | COc1ccnn2c(-c3cc4c(c5c3CNC5=O)Nc3ccc(N5CCOC(C(C)(C)O)C5)cc3C4(C)C)cnc12 (stereo not drawn) [Example 24]
35 | 1.79 | 11.7 | COc1cccc2c(-c3cc4c(c5c3CNC5=O)Nc3cnc(N5CCOCC5)cc3C4(C)C)cnn12 [Example 27]
36 | 12.3 | 16.4 | Cn1ccc(-c2cc3c(c4c2CNC4=O)Nc2ccc(N4CCOC(C(C)(C)O)C4)cc2C3(C)C)cc1=O (stereo not drawn) [Example 32]
37 | 2.41 | 11.5 | CC1(C)c2cc(N3CCOCC3)ccc2Nc2c1cc(-c1cnc3c(C#N)cccn13)c1c2C(=O)NC1 [Example 34]
38 | 6.33 | 11.8 | CC1(C)c2cc(N3CCOCC3)ccc2Nc2c1cc(-c1cnn3c1CCCC3)c1c2C(=O)NC1 [Example 36]
39 | 2.27 | 7.98 | CC1(C)c2cc(N3CCOCC3)ccc2Nc2c1cc(-c1cnn3ccccc13)c1c2C(=O)NC1 [Example 37]
40 | 4.7 | 12.3 | Cn1ccc2c(-c3cc4c(c5c3CNC5=O)Nc3ccc(N5CCOCC5)cc3C4(C)C)cncc21 [Example 38]
41 | 5.07 | 12.3 | Cc1ccn2c(-c3cc4c(c5c3CNC5=O)Nc3ccc(N5CCC(O)CC5)cc3C4(C)C)cnc2c1F [Example 40]
42 | 7.73 | 10.3 | Cc1ccn2c(-c3cc4c(c5c3CNC5=O)Nc3ccc(N5CCOC(CO)C5)cc3C4(C)C)cnc2c1F (stereo not drawn) [Example 46]
43 | 9.08 | 8.2 | CC1(C)c2cc(C3COCCN3)ccc2Nc2c1cc(-c1cnn3cccnc13)c1c2C(=O)NC1 (stereo not drawn) [Example 52]
44 | 5.54 | 7.97 | CC1(C)c2cc(N3CCOCC3)ccc2Nc2c1cc(-c1cnn3cnccc13)c1c2C(=O)NC1 [Example 53]
45 | 6.53 | 3.81 | Cc1ccnn2c(-c3cc4c(c5c3CNC5=O)Nc3ccc(N5CCOCC5)cc3C4(C)C)cnc12 [Example 54]
46 | 6.97 | 7.78 | CC1(C)c2cc(N3CCOCC3)c(F)cc2Nc2c1cc(-c1cnn3cccnc13)c1c2C(=O)NC1 [Example 59]
47 | 3.02 | 6.08 | CC1(C)c2cc(N3CCOCC3)ccc2Nc2c1cc(-c1cnc3cc(F)ccn13)c1c2C(=O)NC1 [Example 62]
48 | 4.98 | 5.48 | COc1nccn2c(-c3cc4c(c5c3CNC5=O)Nc3ccc(N5CCOCC5)cc3C4(C)C)cnc12 [Example 63]
49 | 3.51 | 5.28 | CC1(C)c2cc(N3CCOCC3)ccc2Nc2c1cc(-c1cnc3c(F)cccn13)c1c2C(=O)NC1 [Example 64]
50 | 14.4 | 3.93 | Cn1cccc(Nc2cc3c(c4c2CNC4=O)Nc2ccc(N4CCOCC4)cc2C3(C)C)c1=O [Example 67]
51 | 1.41 | 4.55 | COc1cccn2c(-c3cc4c(c5c3CNC5=O)Nc3ccc(N5CCOCC5)cc3C4(C)C)nnc12 [Example 75]
52 | 13.6 | 4.56 | CC1(C)c2cc(N3CCOCC3)ccc2Nc2c1cc(-c1cnn3c1OCCC3)c1c2C(=O)NC1 [Example 77]
53 | 11.5 | 7.95 | CC1(C)c2cc(N3CCOCC3)ccc2Nc2c1cc(-c1cnc3n1CCC3)c1c2C(=O)NC1 [Example 86]
54 | 8.97 | 7.88 | Cc1ncc(-c2cc3c(c4c2CNC4=O)Nc2ccc(N4CCOCC4)cc2C3(C)C)n1C [Example 87]
